Assay [1] has as its target T1, PSE-4 (Pseudomonas aeruginosa, UniProt P16897). The experiment in a line: 6-well visual test with nitrocefin. The settings on record: 3 minutes, room temperature.
Assay [2] addresses T1, PSE-4. The experiment in a line: Competitive assay with nitrocefin (RSAI). It counts as biochemical, Ps.aerug. 1559E. The arrangement: Normally, therefore, the beta-lactamase has to be extracted from the cells for the purpose of the present invention; endogenous in cells.
Assay [3] concerns the target PSE-1 (Pseudomonas aeruginosa, UniProt Q03170). Description: Competitive assay with nitrocefin (RSAI). On the set-up: Normally, therefore, the beta-lactamase has to be extracted from the cells for the purpose of the present invention; endogenous in cells. It counts as biochemical, Ps.aerug. 1937E.
Assay [4] has as its target Ps +AMP (Chromosomal) (Pseudomonas aeruginosa, UniProt P24735). The experiment in a line: 6-well visual test with nitrocefin. The settings on record: 3 minutes, room temperature.
Assay [5] deals with K1073. Description: Competitive assay with nitrocefin (RSAI). It counts as biochemical, Klebsiella 1073.
In assay [6] the test system is K10317. The experiment in a line: Competitive assay with nitrocefin (RSAI). It counts as biochemical, K.aerog. 10317.
The test system of assay [7] is K17. Description: Competitive assay with nitrocefin (RSAI). It counts as biochemical, Klebsiella 17.
The target in assay [8] is TEM-2 (Escherichia coli, UniProt P62593, Q37K). The experiment in a line: Competitive assay with nitrocefin (RSAI). It counts as biochemical, E. coli 1725E.
For assay [9], the system named is PSE-3. The experiment in a line: Competitive assay with nitrocefin (RSAI). It counts as biochemical, Ps.aerug. 1920E.
[10] abbreviates: well A: Cefoxitin 20:1 to nitrocefin.
Where [11] appears, read: well E: Cefoxitin 200:1 to nitrocefin.

Marks after values point to notes of the source that are not given here.

T1 sequence (P16897 18-288): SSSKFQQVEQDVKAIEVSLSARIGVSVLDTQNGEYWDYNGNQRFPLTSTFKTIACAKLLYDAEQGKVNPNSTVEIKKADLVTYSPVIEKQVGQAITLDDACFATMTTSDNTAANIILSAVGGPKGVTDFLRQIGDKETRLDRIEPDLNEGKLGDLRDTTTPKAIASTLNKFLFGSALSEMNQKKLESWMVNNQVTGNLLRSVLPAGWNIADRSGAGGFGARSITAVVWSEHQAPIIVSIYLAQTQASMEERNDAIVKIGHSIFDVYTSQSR
Ps +AMP (Chromosomal), sequence (P24735 27-397): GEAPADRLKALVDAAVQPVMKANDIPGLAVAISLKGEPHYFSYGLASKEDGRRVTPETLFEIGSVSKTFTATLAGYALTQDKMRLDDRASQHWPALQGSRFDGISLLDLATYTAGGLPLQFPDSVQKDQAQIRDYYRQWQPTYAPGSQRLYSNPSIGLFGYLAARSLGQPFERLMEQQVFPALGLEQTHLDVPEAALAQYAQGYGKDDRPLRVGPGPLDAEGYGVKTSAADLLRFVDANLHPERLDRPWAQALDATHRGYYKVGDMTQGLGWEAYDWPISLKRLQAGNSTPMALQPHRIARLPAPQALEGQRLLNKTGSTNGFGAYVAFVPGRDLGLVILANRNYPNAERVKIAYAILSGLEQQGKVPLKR
PSE-1, sequence (Q03170 18-288): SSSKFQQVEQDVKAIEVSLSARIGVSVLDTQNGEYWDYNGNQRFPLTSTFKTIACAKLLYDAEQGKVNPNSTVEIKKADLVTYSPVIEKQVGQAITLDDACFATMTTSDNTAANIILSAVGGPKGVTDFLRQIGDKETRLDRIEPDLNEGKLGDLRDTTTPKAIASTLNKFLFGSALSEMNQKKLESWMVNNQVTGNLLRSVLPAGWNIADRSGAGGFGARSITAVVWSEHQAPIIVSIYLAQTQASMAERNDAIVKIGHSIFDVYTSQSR

For `CO[C@@]1(NC(=O)Cc2cccs2)C(=O)N2C(C(=O)O)=C(COC(N)=O)CS[C@@H]21` [Cefoxi-tin, cefoxitin], the “Score in 6-well visual test” value is on record as “+” in assay [1] (setting [10]), “-” in assay [1] (setting [11]), “-” in assay [4] (setting [10]) and “-” in assay [4] (setting [11]). The RSAI is reported as 27 in assay [2]; 20 in [3]; 1020 in assay [5]; 350* in [6]; 1.6 in [7]; 60* in assay [8]. In addition, in [9], the RSAI came to 11.4.
